In patent US10988502B2, “Alpha-D-galactoside inhibitors of galectins” (GALECTO BIOTECH AB, priority 2016, dated 2021):
Read-outs that look alike come from different tables or passages of the source.

Experiments:
Galectin-1 [1] = target: T1, Galectin-1 (Homo sapiens (Human), UniProt P09382); test: Fluorescence anisotropy assay, compound as inhibitor of galectin / fluorescein tagged saccharide probe interaction; type: binding
Protocol: (§1) The affinity of Example 1-32 for galectins were determined by a fluorescence anisotropy assay where the compound was used as an inhibitor of the interaction between galectin and a fluorescein tagged saccharide probe as described Sörme, P., Kahl-Knutsson, B., Huflejt, M., Nilsson, U. J., and Leffler H. (2004) Fluorescence polarization as an analytical tool to evaluate galectin-ligand interactions. Anal. Biochem. 334: 36-47, (Sörme et al., 2004) and Monovalent interactions of Galectin-1 By Salomonsson, Emma; Larumbe, Amaia; Tejler, Johan; Tullberg, Erik; Rydberg, Hanna; Sundin, Anders; Khabut, Areej; Frejd, Torbjorn; Lobsanov, Yuri D.; Rini, James M.; et al, From Biochemistry (2010), 49(44), 9518-9532, (Salonmonsson et al., 2010).
Target sequence in this assay (P09382 whole entry): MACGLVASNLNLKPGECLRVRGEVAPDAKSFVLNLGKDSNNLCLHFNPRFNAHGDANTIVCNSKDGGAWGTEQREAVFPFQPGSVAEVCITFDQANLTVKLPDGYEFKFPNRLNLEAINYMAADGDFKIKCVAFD

Galectin-3 = Galectin-3 (Homo sapiens (Human), UniProt P17931); test: as above; type: binding
Chain of Galectin-3 (P17931 whole entry): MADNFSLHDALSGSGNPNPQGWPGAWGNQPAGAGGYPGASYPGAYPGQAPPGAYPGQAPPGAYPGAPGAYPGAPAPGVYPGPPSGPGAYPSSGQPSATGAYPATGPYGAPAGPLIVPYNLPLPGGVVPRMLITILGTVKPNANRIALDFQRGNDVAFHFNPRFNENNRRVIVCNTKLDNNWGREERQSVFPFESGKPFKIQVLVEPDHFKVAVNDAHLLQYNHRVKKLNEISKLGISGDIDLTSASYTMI
Protocol: as §1

[2] = Permeability (Papp) Caco-2 A>B; type: in vitro ADME; details: human, apical (A) to basolateral (B) direction
Protocol: (§2) The permeability (Papp) (Caco-2 A>B) was determined from the apical (A) to the basolateral (B) direction in adenocarcinoma cells from human colon. The human hepatic stability (CLint) was determined in human hepatocytes.

galectins = details: cited from earlier work
Galectin-1 [3] = target: T1, Galectin-1; details: read-out: affinity to Galectin-1, cited from earlier work
Target sequence in this assay (P09382 whole entry, species assumed): as the sequence (P09382 whole entry) above

[4] = Human hepatic stability (CLint) in human hepatocytes; type: in vitro ADME; details: * = no degradation observed under the assay conditions
Protocol: as §2

OC[C@H]1O[C@H](Sc2cc(Cl)c(F)c(Cl)c2)[C@H](O)[C@@H](n2cc(-c3cscn3)nn2)[C@H]1O [Example 14, 3,5-Dichloro-4-fluoro-phenyl 3-deoxy-3-[4-(4-thiazolyl)-1H-1,2,3-triazol-1-yl]-1-thio-α-D-galactopyranoside]
Kd (Galectin-1 [1]): 230 nM | Kd (Galectin-3): 6200 nM | Papp [2]: 8.8 ×10⁻⁶ cm/s

O=C[C@H](O)[C@@H](O)[C@@H](O)[C@H](O)CO [Galactose, D-galactose]
affinity relative to lactose (galectins; compared with lactose): 50-100 times lower | Kd (Galectin-1 [3]; Tejler et. al. 2009): 10 mM

OC[C@H]1O[C@H](Sc2ccc(Cl)c(Cl)c2)[C@H](O)[C@@H](n2cc(-c3ccsc3)nn2)[C@H]1O [Example 1, 3,4-Dichlorophenyl 3-deoxy-3-[4-(3-thiophenyl)-1H-1,2,3-triazol-1-yl]-1-thio-α-D-galactopyranoside]
Kd (Galectin-1 [1]): 140 nM | Kd (Galectin-3): 2600 nM | Papp [2]: 10.1 ×10⁻⁶ cm/s | CLint scaled [4]: 12.1 mL/min/kg

OC[C@H]1O[C@@H](O[C@H]2[C@H](O)[C@@H](O)C(O)O[C@@H]2CO)[C@H](O)[C@@H](O)[C@H]1O (some centres unmarked) [Lactose]
Kd (galectins; reviewed by Leffler, 2001, Leffler et al., 2004, read-out: Kd for all galectins): 100 to 1000 µM

OCC1O[C@@H](S[C@@H]2O[C@H](CO)C(O)C(n3cc(-c4ccsc4)nn3)[C@H]2O)C(O)[C@@H](n2cc(-c3ccsc3)nn2)[C@H]1O (some centres unmarked)
Kd (Galectin-1 [3]; T. Delaine, 2016, ChemBioChem): < 1e-05 mM

OCC1O[C@H](Sc2cc(Cl)c(F)c(Cl)c2)C(O)[C@@H](n2cc(-c3nccs3)nn2)[C@H]1O (some centres unmarked) [Example 5]
Papp [2]: 10.5 ×10⁻⁶ cm/s | CLint scaled [4]: 0.38 mL/min/kg

OC[C@H]1O[C@H](Sc2cnc(C(F)(F)F)c(Br)c2)[C@H](O)[C@@H](n2cc(-c3ccsc3)nn2)[C@H]1O [Example 4, 5-Bromo-6-trifluoromethyl-pyridin-3-yl 3-deoxy-3-[4-(3-thiophenyl)-1H-1,2,3-triazol-1-yl]-1-thio-α-D-galactopyranoside]
Kd (Galectin-1 [1]): 380 nM | Kd (Galectin-3): 1200 nM | Papp [2]: 2.5 ×10⁻⁶ cm/s | CLint scaled [4]: 11.3 mL/min/kg
